The source of these data is patent US10442763B2, “EBNA1 inhibitors and methods using same” (priority 2015, dated 2019).

In general, IC50 refers to the midpoint of a concentration-inhibition curve.

In the experiment the target is T1, His-EBNA1 (DNA binding domain of EBNA1, amino acids 459-607) (Epstein-Barr virus, UniProt P03211).
T1 construct: made in house; host or cells: E. coli
T1 sequence (P03211 459-607): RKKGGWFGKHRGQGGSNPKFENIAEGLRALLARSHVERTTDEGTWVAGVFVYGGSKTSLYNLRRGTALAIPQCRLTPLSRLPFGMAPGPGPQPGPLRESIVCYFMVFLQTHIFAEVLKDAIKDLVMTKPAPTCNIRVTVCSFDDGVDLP
As to the kind of experiment: Inhibition of 5'-biotin-oPL4624 binding to His-EBNA1 using Alpha Screen technology. The protocol: Inhibition of 5′-Biotin-oPL4624 Binding to his-EBNA1 Using Alpha Screen Technology
Assays were performed using the DNA binding domain of EBNA1 (amino acids 459-607), which was His-tagged (His-EBNA1) and the self-complementary biotinylated (bt) oligonucleotide with the sequence 5′-bt-[…]-ATGCTACCC-3′ (bt-oPL4624; or 5′-bt-SEQ ID NO: 1). The protein was expressed in E. coli and purified according to Barwell, et al., 1995, J Biol Chem. 270:20556-9.). The bt-oPL4624 oligonucleotide was purchased from Integrated DNA Technologies, Inc (IDT). AlphaScreen donor, acceptor beads and white, opaque 384-well assay plates were purchased from PerkinElmer, Inc.
Assays contained 15 nM His-EBNA1, 0.2 nM bt-oPL4624, 5 μg/mL AlphaScreen streptavidin donor beads and nickel chelate acceptor beads, and a series of concentrations of test compound ranging from 3.2 nM to 100 μM in a total volume of 40 μL assay buffer (25 mM Tris, pH 7.2, 160 mM NaCl, 1 mM MgCl2). His-EBNA1 (30 nM) and bt-oPL4624 (0.4 nM) were preincubated with 10 μg/mL nickel chelate AlphaScreen acceptor bead, or 10 μg/mL streptavidin AlphaScreen donor bead, respectively, for 30 minutes at room temperature in assay buffer. Twenty microliters of His-EBNA1/acceptor bead mix and bt-oPL4624/donor bead mix were transferred to assay plates containing 0.4 μL of 1:3 serial dilutions of test compounds previously prepared in DMSO at concentrations ranging from 0.32 μM to 10 mM. Non-specific binding was determined with 5 μg/mL AlphaScreen acceptor bead in the absence of His-EBNA1. After 2 hr incubation at room temperature, the AlphaScreen signal was measured on the Envision plate reader (PerkinElmer, Inc.) at 680 nm excitation and 570 nm emission. Inhibition values at each concentration of test compound were determined by setting 100% equal to raw data values in the absence of EBNA1 and 0% equal to the raw data values in the presence of EBNA1. Nonlinear regression fits of the inhibition values to a one-site dose-response equation were performed using GraphPad Prism.
On the technique in general: Bead proximity is the source of the signal in Alpha formats.
Molecule `O=C(O)c1cccc(C#Cc2ccc3ccn(CCN4CCOCC4)c3c2)c1-c1ccc2cc[nH]c2c1` [Entry 1] showed an IC50 of 10 to 100 µM.

Molecule `CC(=O)Nc1cc(C#Cc2cccc(C(=O)O)c2-c2ccc3cc[nH]c3c2)ccc1OC1CCOCC1` [Entry 2] had an IC50 of 10 to 100 µM.

The molecule `CC(=O)N1C2CCC1CC(c1ccc(C#Cc3cccc(C(=O)O)c3-c3ccc4cc[nH]c4c3)cc1)C2` (stereo not shown) [Entry 3] registered an IC50 of 10 to 100 µM.

The molecule `CN(C)CCn1ccc2cc(C#Cc3cccc(C(=O)O)c3-c3ccc4cc[nH]c4c3)cnc21` [Entry 4] had an IC50 of 1 to 10 µM.

Regarding `CN(C)CCCn1ccc2cc(C#Cc3cccc(C(=O)O)c3-c3ccc4cc[nH]c4c3)cnc21` [Entry 5], the IC50 is 10 to 100 µM.

Consider `O=C(O)c1cccc(C#Cc2cnc3c(ccn3CCCN3CCOCC3)c2)c1-c1ccc2cc[nH]c2c1` [Entry 6], for which the IC50 was in the range of 1 to 10 µM.

For `O=C(O)c1cccc(C#Cc2cn(CCCN3CCOCC3)c3ncccc23)c1-c1ccc2cc[nH]c2c1` [Entry 7], the concentration for half-maximal inhibition (IC50) lay within 10 to 100 µM.

In turn, `O=C(O)c1cccc(C#Cc2cnc3c(ccn3CCN3CCOCC3)c2)c1-c1ccc2cc[nH]c2c1` [Entry 8] yielded an IC50 of 1 to 10 µM.

Take `O=C(O)c1cccc(C#Cc2cn(CCN3CCOCC3)c3ncccc23)c1-c1ccc2cc[nH]c2c1` [Entry 10]: the IC50 lay in the range of 10 to 100 µM.

Molecule `CN(C)CCCn1cc(C#Cc2cccc(C(=O)O)c2-c2ccc3cc[nH]c3c2)c2cccnc21` [Entry 11] displayed an IC50 of 100 to 1000 µM.

Turning to `O=C(O)c1cccc(C#Cc2cnc3c(ccn3CCN3CCS(=O)(=O)CC3)c2)c1-c1ccc2cc[nH]c2c1` [Entry 12], the IC50 lay in the range of 10 to 100 µM.

The molecule `O=C(O)c1cccc(C#Cc2ccc3c(ccn3CCN3CCOCC3)c2)c1-c1ccc2cc[nH]c2c1` [Entry 13] gave an IC50 of 10 to 100 µM.

The molecule `O=C(O)c1cccc(C#Cc2ccc3c(ccn3CCCN3CCOCC3)c2)c1-c1ccc2cc[nH]c2c1` [Entry 14] returned an IC50 of 10 to 100 µM.

Regarding `O=C(O)c1cccc(C#Cc2ccc3ccn(CCCN4CCOCC4)c3c2)c1-c1ccc2cc[nH]c2c1` [Entry 15], the IC50 was 10 to 100 µM.

On to `O=C(O)c1cccc(C#Cc2cnc3c(c2)CCCN3)c1-c1ccc2cc[nH]c2c1` [Entry 16], for which the IC50 lay in the range of 1 to 10 µM.

Regarding `O=C(O)c1cccc(C#Cc2cnc3c(ccn3CC3CCOCC3)c2)c1-c1ccc2cc[nH]c2c1` [Entry 17], the IC50 was in the range of 1 to 10 µM.

With `O=C(O)c1cccc(C#Cc2ccc3c(ccn3CC3CCOCC3)c2)c1-c1ccc2cc[nH]c2c1` [Entry 18], the IC50 is 1 to 10 µM.

As to `CS(=O)(=O)N1CCC(Cn2ccc3cc(C#Cc4cccc(C(=O)O)c4-c4ccc5cc[nH]c5c4)ccc32)CC1` [Entry 19], the IC50 is 1 to 10 µM.

`CS(=O)(=O)N1CCC(Cn2ccc3cc(C#Cc4cccc(C(=O)O)c4-c4ccc5cc[nH]c5c4)cnc32)CC1` [Entry 20] gave an IC50 of 1 to 10 µM.

On to `O=C(O)c1cccc(C#Cc2cnc3c(ccn3CC3CCS(=O)(=O)CC3)c2)c1-c1ccc2cc[nH]c2c1` [Entry 21], for which the IC50 is 1 to 10 µM.

In turn, `O=C(O)c1cccc(C#Cc2ccc3c(ccn3CCN3CCS(=O)(=O)CC3)c2)c1-c1ccc2cc[nH]c2c1` [Entry 22] had an IC50 of 1 to 10 µM.

Molecule `O=C(O)c1cccc(C#Cc2ccc3ccn(CCN4CCS(=O)(=O)CC4)c3c2)c1-c1ccc2cc[nH]c2c1` [Entry 23] had an IC50 of 10 to 100 µM.

Take `O=C(O)c1cccc(C#Cc2ccc3c(ccn3CCCN3CCS(=O)(=O)CC3)c2)c1-c1ccc2cc[nH]c2c1` [Entry 24]: the IC50 fell in the range of 10 to 100 µM.

Consider `O=C(O)c1cccc(C#Cc2ccc3ccn(CCCN4CCS(=O)(=O)CC4)c3c2)c1-c1ccc2cc[nH]c2c1` [Entry 25], for which the IC50 fell in the range of 1 to 10 µM.

As for `O=C(O)c1cccc(C#Cc2ccc(COC3CCS(=O)(=O)CC3)cc2)c1-c1ccc2cc[nH]c2c1` [Entry 26], the IC50 lay in the range of 10 to 100 µM.

`O=C(O)c1cccc(C#Cc2ccc(COC3CCOCC3)cc2)c1-c1ccc2cc[nH]c2c1` [Entry 27] registered a 50% inhibitory concentration (IC50) of 10 to 100 µM.

As for `CC(C)OCc1ccc(C#Cc2cccc(C(=O)O)c2-c2ccc3cc[nH]c3c2)cc1` [Entry 28], the IC50 was in the range of 1 to 10 µM.

In turn, `O=C(O)c1cccc(C#Cc2ccc(OC3CC[S+]([O-])CC3)cc2)c1-c1ccc2cc[nH]c2c1` (stereo not shown) [Entry 29] yielded an IC50 of 10 to 100 µM.

`O=C(O)c1cccc(C#Cc2ccc3c(CN4CCOCC4)c[nH]c3c2)c1-c1ccc2cc[nH]c2c1` [Entry 30] gave an IC50 of 10 to 100 µM.

Turning to `CS(=O)(=O)N1CCN(Cc2c[nH]c3cc(C#Cc4cccc(C(=O)O)c4-c4ccc5cc[nH]c5c4)ccc23)CC1` [Entry 31], the IC50 is 1 to 10 µM.

In turn, `O=C(O)c1cccc(C#Cc2ccc3c(CN4CCS(=O)(=O)CC4)c[nH]c3c2)c1-c1ccc2cc[nH]c2c1` [Entry 32] displayed a concentration for half-maximal inhibition (IC50) of 1 to 10 µM.

For the molecule `O=C(O)c1cccc(C#Cc2ccc3cc(CN4CCOCC4)[nH]c3c2)c1-c1ccc2cc[nH]c2c1` [Entry 33], the IC50 was 10 to 100 µM.

Regarding `O=C(O)c1cccc(C#Cc2ccc3cc(CN4CCS(=O)(=O)CC4)[nH]c3c2)c1-c1ccc2cc[nH]c2c1` [Entry 34], the IC50 was 1 to 10 µM.

`O=C(O)c1cccc(C#Cc2cc3ccn(CC4CCOCC4)c3cc2F)c1-c1ccc2cc[nH]c2c1` [Entry 35] showed an IC50 of 1 to 10 µM.

Regarding `O=C(O)c1cccc(C#Cc2ccc3ccn(CC4CCOCC4)c3c2F)c1-c1ccc2cc[nH]c2c1` [Entry 36], the IC50 lay within 1 to 10 µM.

Take `O=C(O)c1cccc(C#Cc2ccc3ccn(CC4CCS(=O)(=O)CC4)c3c2F)c1-c1ccc2cc[nH]c2c1` [Entry 37]: the half-inhibitory concentration (IC50) was in the range of 1 to 10 µM.

In turn, `O=C(O)c1cccc(C#Cc2cc3ccn(CC4CCS(=O)(=O)CC4)c3cc2F)c1-c1ccc2cc[nH]c2c1` [Entry 38] showed an IC50 of 1 to 10 µM.

On to `O=C(O)c1cccc(C#Cc2ccc3c(CN4CCOCC4)c[nH]c3c2F)c1-c1ccc2cc[nH]c2c1` [Entry 39], for which the IC50 is 1 to 10 µM.

In turn, `O=C(O)c1cccc(C#Cc2cc3c(CN4CCOCC4)c[nH]c3cc2F)c1-c1ccc2cc[nH]c2c1` [Entry 40] yielded an IC50 of 10 to 100 µM.

Regarding `O=C(O)c1cccc(C#Cc2ccc(-c3nn[nH]n3)cc2)c1-c1ccc2cc[nH]c2c1` [Entry 41], the 50% inhibitory concentration (IC50) was less than 1 µM.

`O=C(O)c1cccc(C#Cc2cccc(-c3nn[nH]n3)c2)c1-c1ccc2cc[nH]c2c1` [Entry 42] registered an IC50 of less than 1 µM.

In the case of `O=C(O)c1cccc(C#Cc2ccc(-c3cnco3)cc2)c1-c1ccc2cc[nH]c2c1` [Entry 43], the IC50 was 1 to 10 µM.

`O=C(O)c1cccc(C#Cc2ccc(-c3ccc(=O)[nH]n3)cc2)c1-c1ccc2cc[nH]c2c1` [Entry 44]: the IC50 fell in the range of 1 to 10 µM.

For `COc1cc(C#Cc2cccc(C(=O)O)c2-c2ccc3cc[nH]c3c2)ccc1CN1CCOCC1` [Entry 45], the concentration for half-maximal inhibition (IC50) was 10 to 100 µM.

`O=C(O)c1cccc(C#Cc2ccc(C(=O)N3CCOCC3)c(O)c2)c1-c1ccc2cc[nH]c2c1` [Entry 46] returned an IC50 of 10 to 100 µM.

`COc1cc(C#Cc2cccc(C(=O)O)c2-c2ccc3cc[nH]c3c2)ccc1CN1CCC(N2CCOCC2)CC1` [Entry 47]: the IC50 is 100 to 1000 µM.

Molecule `COc1cc(C#Cc2cccc(C(=O)O)c2-c2ccc3cc[nH]c3c2)ccc1CN1CCC(F)(F)CC1` [Entry 48] showed an IC50 of 1 to 10 µM.

As for `O=C(O)c1cccc(C#Cc2ccc(C(=O)N3CCC(N4CCOCC4)CC3)c(O)c2)c1-c1ccc2cc[nH]c2c1` [Entry 50], the IC50 lay in the range of 1 to 10 µM.

Molecule `O=C(O)c1cccc(C#Cc2ccc(C(=O)N3CCC(F)(F)CC3)c(O)c2)c1-c1ccc2cc[nH]c2c1` [Entry 51] yielded an IC50 of 1 to 10 µM.
